Tests used:
[1] = target: T1, CXCR2 (Homo sapiens, UniProt P25025); assay: Ki calculated from IC50 by the Cheng-Prusoff equation; assay type: binding; details: read-out: KiCXCR2 (nmol/L)
T1 sequence (P25025 1-360): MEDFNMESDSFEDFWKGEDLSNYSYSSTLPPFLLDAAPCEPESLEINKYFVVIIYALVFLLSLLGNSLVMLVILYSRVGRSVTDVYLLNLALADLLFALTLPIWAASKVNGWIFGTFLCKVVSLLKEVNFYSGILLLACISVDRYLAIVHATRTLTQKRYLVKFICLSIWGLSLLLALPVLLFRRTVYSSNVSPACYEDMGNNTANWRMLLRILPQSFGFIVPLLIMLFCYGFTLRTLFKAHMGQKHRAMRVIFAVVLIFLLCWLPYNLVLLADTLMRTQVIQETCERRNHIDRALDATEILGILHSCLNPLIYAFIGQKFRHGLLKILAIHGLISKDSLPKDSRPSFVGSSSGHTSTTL

[2] = target: T2, CXCR1 (Homo sapiens, UniProt P25024); assay: as above; assay type: binding; details: read-out: KiCXCR1 (nmol/L)
T2 sequence (P25024 1-350): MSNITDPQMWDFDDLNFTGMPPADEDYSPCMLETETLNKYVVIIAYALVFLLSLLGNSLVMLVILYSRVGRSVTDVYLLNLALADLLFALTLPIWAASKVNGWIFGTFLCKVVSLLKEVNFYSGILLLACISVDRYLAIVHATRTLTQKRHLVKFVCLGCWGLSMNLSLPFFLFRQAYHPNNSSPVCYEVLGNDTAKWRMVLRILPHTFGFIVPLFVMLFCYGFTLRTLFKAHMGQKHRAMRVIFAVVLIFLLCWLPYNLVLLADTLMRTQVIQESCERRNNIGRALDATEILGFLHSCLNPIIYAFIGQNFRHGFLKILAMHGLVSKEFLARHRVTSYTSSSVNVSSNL

- Ki [1]: 0.17 nmol/L
- Ki [2]: 7 nmol/L
Substance: SCH-479833
